Test results: patent US20210094933A1, “RAPAFUCIN DERIVATIVE COMPOUNDS AND METHODS OF USE THEREOF” (The Johns Hopkins University, priority 2019, published 2021)
Numbered stars: 1 amine (or outer) side, 2 acyl side, 3 side chain; on linkers, the order of the positions; unused ones are H or OH. Bridge positions count the residues as written; N and C are the ends. Square brackets hold non-standard residues; d marks the D form. Side chains are listed from the residue outwards. Peptide text beside a SMILES is read from it. * marks the point of attachment. X1 = COc1ccc(CC[C@@H](N[*:1])c2cccc(OCC(=O)[*:2])c2)cc1OC; X3 = COc1ccc(CC[C@H](O[*:2])c2cccc(OCC(=O)[*:1])c2)cc1OC; X2 = CN(CCC=CC(=O)OCC(C)(C)C(=O)C(=O)[*:2])[*:1]; 2Nal = N[C@@H](Cc1ccc2ccccc2c1)C(=O)O; dNMeNle = CCCC[C@@H](NC)C(=O)O; Pip = O=C(O)[C@@H]1CCCCN1; dNMeS = CN[C@H](CO)C(=O)O; dPip = O=C(O)[C@H]1CCCCN1; Morpholide = C1CN(*)CCO1; CO = O=C([*:1])[*:2]; Sar = CNCC(=O)O; tBu = CC(C)(C)*

What was measured:
Assay type in all cases: cell-based
[1] = Cell proliferation assay, single concentration, response relative to DMSO; cell line indicated in each table; conditions: for Rel. Prolif., NCI-H929: NCI-H929 cells
Method: (§1) Cell Proliferation Assay (Prolif.) Guo et al. (2018) Nat. Chem. 11:254-63. Specific cell lines are indicated in each assay and cultured in complete growth media. Activity is scored according to the IC50 values relative to DMSO control. “Low” indicates an IC50 greater than 600 nM, “Medium” indicates an IC50 between 300 nM and 600 nM “High” indicates an IC50 less than 300 nM. “Rel.Uptake” refers to uptake activity characterization relative to a single concentration assay. “Low” indicates a response greater than 0.6 times the activity relative to DMSO, “Medium” indicates a response between 0.6 and 0.3 times the activity relative to DMSO, “High” indicates a response less than 0.3 times the activity relative to DMSO.

H929 = assay: Cell proliferation assay (Prolif.), IC50 relative to DMSO control; conditions: H929 cells; for Prolif. H929: class relative to DMSO control
Method: as §1

293T = assay: Nucleoside uptake assay (3H-Thymidine), IC50 relative to DMSO control; conditions: 293T cells
Method: (§2) Nucleoside Uptake Assay (uptake). Nuceloside uptake assays were performed with using 3H-Thymidine as described in Guo et al. (2018) Nat. Chem, 11:254-63. Specific cell lines are indicated in each assay and cultured in complete growth media. Activity is scored according to the IC50 values relative to DMSO control. “Low” indicates an IC50 greater than 600 nM, “Medium” indicates an IC50 between 300 nM and 600 nM “High” indicates an IC50 less than 300 nM. “Rel.Uptake” refers to uptake activity characterization relative to a single concentration assay. “Low” indicates a response greater than 0.6 times the activity relative to DMSO, “Medium” indicates a response between 0.6 and 0.3 times the activity relative to DMSO, “High” indicates a response less than 0.3 times the activity relative to DMSO.

[2] = Nucleoside uptake assay, single concentration (Rel.Uptake), response relative to DMSO; cell line indicated in each table
Method: as §2

[3] = 3H-Thymidine uptake, IC50 class relative to DMSO control
[4] = nucleoside uptake, single concentration, 293T cells
[5] = 293 T cells, single concentration
[6] = 293 T cells, nucleoside uptake at single concentration

SMILES | Uptake, 293T (293T; [3]) | Rel. Uptake, 293 T [2, 6] | also measured
CCCC[C@@H]1C(=O)N[C@@H](Cc2ccc3ccccc3c2)C(=O)N(C)[C@H](COC(C)(C)C)C(=O)NCC(=O)N(C)CCC=CC(=O)OCC(C)(C)C(=O)C(=O)N2CCCC[C@@H]2C(=O)O[C@@H](CCc2ccc(OC)c(OC)c2)c2cccc(c2)OCC(=O)N(C)CC(=O)N1C [Compound 1] ([Sar][dNMeNle][2Nal][dNMeS](tBu)G[X2][dPip]; linker N-C via X3) |  |  | Rel. Prolif., A549 ([1]; A549 cells): low
COc1ccc(CC[C@H]2OC(=O)[C@@H]3CCCCN3C(=O)C(=O)C(C)(C)COC(=O)C=CCCN(C)C(=O)[C@@H](Cc3ccccc3)NC(=O)CN(C)C(=O)[C@@H](Cc3ccccc3)NC(=O)[C@H](Cc3ccc(OC(=O)N4CCOCC4)cc3)N(C)C(=O)COc3cccc2c3F)cc1OC [Compound 867] |  |  | Rel. Prolif., NCI-H929 [1]: low; Prolif. H929 (H929): high
COc1ccc(CC[C@H]2OC(=O)[C@@H]3CCCCN3C(=O)C(=O)C(C)(C)COC(=O)C=CCCN(C)C(=O)[C@@H](Cc3ccccc3)NC(=O)CN(C)C(=O)[C@@H](Cc3ccccc3)NC(=O)[C@H](Cc3ccc(OC(=O)N4CCOCC4)cc3)N(C)C(=O)COc3cc(F)cc2c3)cc1OC [Compound 868] |  |  | Rel. Prolif., NCI-H929 [1]: low; Prolif. H929 (H929): low
COc1ccc(CC[C@H]2OC(=O)[C@@H]3CCCCN3C(=O)C(=O)C(C)(C)COC(=O)C=CCCN(C)C(=O)[C@@H](Cc3ccccc3)NC(=O)CN(C)C(=O)[C@@H](Cc3ccccc3)NC(=O)[C@H](Cc3ccc(OC(=O)N4CCOCC4)cc3)N(C)C(=O)CCC(=O)Nc3cccc2c3)cc1OC [Compound 869] |  |  | Rel. Prolif., NCI-H929 [1]: low; Prolif. H929 (H929): high
COc1ccc(CC[C@H]2NC(=O)[C@@H]3CCCCN3C(=O)C(=O)C(C)(C)COC(=O)C=CCCN(C)C(=O)[C@@H](Cc3ccccc3)NC(=O)CN(C)C(=O)[C@@H](Cc3ccccc3)NC(=O)[C@H](Cc3ccc(OC(=O)N4CCOCC4)cc3)NC(=O)COc3cccc2c3)cc1OC [Compound 877] (cyclo([Pip][X1]Y([CO-Morpholide])[dF][Sar][dF][X2])) |  |  | Rel. Prolif., NCI-H929 [1]: low; Prolif. H929 (H929): low
COc1ccc(CC[C@H]2OC(=O)[C@@H]3CCCCN3C(=O)C(=O)C(C)(C)COC(=O)C=CCCN(C)C(=O)[C@H](CC(C)C)N(C)C(=O)[C@H]3CCCN3C(=O)[C@H](CC(=O)OC(C)(C)C)N(C)C(=O)C(c3ccccc3)NC(=O)CCC(=O)Nc3cccc2c3)cc1OC (stereo partly drawn) [Compound 1066] | high |  | Rel. Uptake, 293 T [2, 4]: high
COc1ccc(CC[C@H]2OC(=O)[C@@H]3CCCCN3C(=O)C(=O)C(C)(C)COC(=O)C=CCCN(C)C(=O)[C@H](CC(C)C)N(C)C(=O)[C@H]3CCCN3C(=O)[C@H](Cc3ccc(CC(=O)OC(C)(C)C)cc3)NC(=O)C(c3ccccc3)NC(=O)CCC(=O)Nc3cccc2c3)cc1OC (stereo partly drawn) [Compound 1081] | medium |  | Rel. Uptake, 293 T [2, 4]: medium
COc1ccc(CC[C@H]2OC(=O)[C@@H]3CCCCN3C(=O)C(=O)C(C)(C)COC(=O)C=CCCN(C)C(=O)[C@H](CC(C)C)N(C)C(=O)[C@H]3CCCN3C(=O)[C@H](Cc3ccc(OCc4ccccc4)cc3)NC(=O)C(c3ccccc3)NC(=O)CCC(=O)Nc3cccc2c3)cc1OC (stereo partly drawn) [Compound 1082] | low |  | Rel. Uptake, 293 T [2, 4]: low
COc1ccc(CC[C@H]2OC(=O)[C@@H]3CCCCN3C(=O)C(=O)C(C)(C)COC(=O)C=CCCN(C)C(=O)[C@H](CC(C)C)N(C)C(=O)[C@H]3CCCN3C(=O)[C@H]3C[C@@H](NC(=O)OC(C)(C)C)CN3C(=O)C(c3ccccc3)NC(=O)CCC(=O)Nc3cccc2c3)cc1OC (stereo partly drawn) [Compound 1087] | low |  | Rel. Uptake, 293 T [2, 5]: low
COc1ccc(CC[C@H]2OC(=O)[C@@H]3CCCCN3C(=O)C(=O)C(C)(C)COC(=O)C=CCCN(C)C(=O)[C@H](CC(C)C)N(C)C(=O)[C@H]3CCCN3C(=O)[C@H](Cc3ccccc3)N(C)C(=O)[C@H](CC(=O)OC(C)(C)C)NC(=O)CCC(=O)Nc3cccc2c3)cc1OC [Compound 1088] | low |  | Rel. Uptake, 293 T [2, 5]: low
COc1ccc(CC[C@H]2OC(=O)[C@@H]3CCCCN3C(=O)C(=O)C(C)(C)COC(=O)C=CCCN(C)C(=O)[C@@H](c3ccccc3)NC(=O)[C@H](Cc3ccc(OP(C)(C)=O)cc3)NC(=O)[C@H]3CCCN3C(=O)[C@H](CC(C)C)N(C)C(=O)COc3cccc2c3)cc1OC [Compound 1520] | low | low | 
COc1ccc(CC[C@H]2OC(=O)[C@@H]3CCCCN3C(=O)C(=O)C(C)(C)COC(=O)C=CCCN(C)C(=O)[C@H](CC(C)C)N(C)C(=O)[C@H]3CCCN3C(=O)[C@H](Cc3ccc(O)cc3)NC(=O)C(c3ccccc3)NC(=O)CCC(=O)Nc3cccc2c3)cc1OC (stereo partly drawn) [Compound 1522] | high | high | 
COc1ccc(CC[C@H]2OC(=O)[C@@H]3CCCCN3C(=O)C(=O)C(C)(C)CNC(=O)C=CCCN(C)C(=O)[C@H](CC(C)C)N(C)C(=O)[C@H]3CCCN3C(=O)[C@H](Cc3ccccc3)N(C)C(=O)C(c3ccccc3)NC(=O)CCC(=O)Nc3cccc2c3)cc1OC (stereo partly drawn) [Compound 1555] | high | high | 
COc1ccc(CC[C@H]2OC(=O)[C@@H]3CCCCN3C(=O)C(=O)C(C)(C)COC(=O)C=CCCN(C)NC(c3ccccc3)C(=O)N(C)[C@@H](Cc3ccccc3)C(=O)N3CCC[C@@H]3C(=O)N(C)[C@@H](CC(C)C)C(=O)C(=O)CCOc3cccc2c3)cc1OC (stereo partly drawn) [Compound 1556] | low | low | 
COc1ccc(CC[C@H]2NC(=O)[C@@H]3CCCCN3C(=O)C(=O)C(C)(C)CNC(=O)C=CCCN(C)C(=O)[C@H](CC(C)C)N(C)C(=O)[C@H]3CCCN3C(=O)[C@H](Cc3ccccc3)N(C)C(=O)C(c3ccccc3)NC(=O)CCC(=O)Nc3cccc2c3)cc1OC (stereo partly drawn) [Compound 1557] | high | high | 
COc1ccc(CC[C@H]2OC(=O)[C@@H]3CCCCN3C(=O)C(=O)C(C)(C)COC(=O)C=CCCN(C)C(=O)[C@H](CC(C)C)N(C)C(=O)[C@H]3CCCN3C(=O)[C@H](Cc3ccc(C(=O)NCCO)cc3)NC(=O)[C@H](c3ccccc3)NC(=O)CCC(=O)Nc3cccc2c3)cc1OC [Compound 1558] |  | high | Uptake, 293T (293T; Table 14): high
COc1ccc(CC[C@H]2OC(=O)[C@@H]3CCCCN3C(=O)C(=O)C(C)(C)COC(=O)C=CCCN(C)C(=O)[C@H](CC(C)C)N(C)C(=O)[C@H]3CCCN3C(=O)[C@H](Cc3ccc(C(=O)Nc4ccccc4)cc3)NC(=O)[C@H](c3ccccc3)NC(=O)CCC(=O)Nc3cccc2c3)cc1OC [Compound 1559] |  | medium | Uptake, 293T (293T; Table 14): me- dium
COc1ccc(CC[C@H]2OC(=O)[C@@H]3CCCCN3C(=O)C(=O)C(C)(C)COC(=O)C=CCCN(C)C(=O)[C@H](CC(C)C)N(C)C(=O)[C@H]3CCCN3C(=O)[C@H](Cc3ccc(C(=O)Nc4cccnc4)cc3)NC(=O)[C@H](c3ccccc3)NC(=O)CCC(=O)Nc3cccc2c3)cc1OC [Compound 1562] |  | low | Uptake, 293T (293T; Table 14): low
COc1ccc(CC[C@H]2OC(=O)[C@@H]3CCCCN3C(=O)C(=O)C(C)(C)COC(=O)C=CCCN(C)C(=O)[C@@H](Cc3ccccc3)NC(=O)CN(C)C(=O)[C@@H](Cc3ccccc3)NC(=O)[C@H](Cc3ccc(O)cc3)N(C)C(=O)COc3cccc2c3)c(O)c1OC [Compound 1584] |  | low | Prolif, H929 (H929; IC50 class relative to DMSO control): low
COc1ccc(CC[C@H]2OC(=O)[C@@H]3CCCCN3C(=O)C(=O)C(C)(C)COC(=O)C=CCCN(C)C(=O)[C@H](CC(C)C)N(C)C(=O)[C@H]3CCCN3C(=O)[C@H](Cc3ccc(CNC(=O)c4ccccc4)cc3)NC(=O)[C@H](c3ccccc3)NC(=O)CCC(=O)Nc3cccc2c3)cc1OC [Compound 1585] |  | High (“High” indicates a response less than 0.3 times the activity relative to DMSO) | IC50 (293T; Table 13): < 300 nM
COc1ccc(CC[C@H]2OC(=O)[C@@H]3CCCCN3C(=O)C(=O)C(C)(C)COC(=O)C=CCCN(C)C(=O)[C@H](CC(C)C)N(C)C(=O)[C@H]3CCCN3C(=O)[C@H](Cc3ccc(CNC(=O)Cc4ccccc4)cc3)NC(=O)[C@H](c3ccccc3)NC(=O)CCC(=O)Nc3cccc2c3)cc1OC [Compound 1586] |  | Med | Uptake, 293T (293T; Table 13): Med
COc1ccc(CC[C@H]2OC(=O)[C@@H]3CCCCN3C(=O)C(=O)C(C)(C)COC(=O)C=CCCN(C)C(=O)[C@H](CC(C)C)N(C)C(=O)[C@H]3CCCN3C(=O)[C@H](Cc3ccc(CNC(=O)CN(C)C)cc3)NC(=O)[C@H](c3ccccc3)NC(=O)CCC(=O)Nc3cccc2c3)cc1OC [Compound 1587] |  | Low (“Low” indicates a response greater than 0.6 times the activity relative to DMSO) | IC50 (293T; Table 13): > 600 nM
COc1ccc(CC[C@H]2OC(=O)[C@@H]3CCCCN3C(=O)C(=O)C(C)(C)COC(=O)C=CCCN(C)C(=O)[C@H](CC(C)C)N(C)C(=O)[C@H]3CCCN3C(=O)[C@H](Cc3cccc(NC(C)=O)c3)NC(=O)[C@H](c3ccccc3)NC(=O)CCC(=O)Nc3cccc2c3)cc1OC [Compound 1588] |  | High (“High” indicates a response less than 0.3 times the activity relative to DMSO) | IC50 (293T; Table 13): < 300 nM
